Test results reported in patent US6534278B1, “Screening for antibiotics” (priority 1997, dated 2003).
≈ marks a conversion by molar mass, not a printed value. Where a SMILES comes first, the peptide text is derived from it. Bridges are numbered along the chain shown (N, C = ends). [ ]: non-standard residue; d: D form. The star is where a group is joined. Ileψ(thiazoline)Cys = CC[C@H](C)[C@H](N)C1=N[C@H](C(=O)*)CS1; dOrn = NCCC[C@@H](N)C(=O)O; Dab = NCC[C@H](N)C(=O)O

Key:
[1] = test system: E. coli strain D22 carrying plasmid pNU305 (ampC and ampR genes from Citrobacter freundii, envA-); experiment: β-lactamase induction screen (nitrocefin, OD 490 nm); type: cell-based; settings: for [Induction] (limit of detection of β-lactamase induction): lowest concentration at which β-lactamase induction begins to increase, average over trials
Description: Screening Strain: E. coli strain D22 carrying plasmid pNU305 which contains the ampC and ampR genes from Citrobacter freundii, the envA-allele, a colEI origin of replication, and a tetracycline resistance determinant was grown in Luria Broth (LB; 5 g yeast extract, 10 g tryptone, and 10 g sodium chloride per liter of purified water) supplemented with E salts (400 μl E salts per 100 ml LB; the E salts contained-10 g magnesium sulfate heptahydrate, 100 g citric acidmonohydrate, 500 g anhydrous dibasic potassium phosphate, and 175 g of monosodium monoammonium phosphate tetrahydrate per liter of purified water).
Reaction Buffer: Nitrocefin was dissolved in dimethylsulfoxide (DMSO) to a concentration of 25 mg/ml and stored in 1 ml aliquots at −80° C. To prepare a reaction buffer, one of the nitrocefin/DMSO aliquots was added to 50 ml Z buffer with detergents (16.1 g dibasic sodium phosphate heptahydrate, 5.5 g monobasic sodium phosphate monohydrate, 0.75 g potassium chloride, 246 mg magnesium sulfate heptahydrate, 200 mg CTAB, and 100 mg sodium deoxycholate per liter, with the pH adjusted to 7.0) and the mixture was vortexed vigorously. The resulting suspension was filtered through Q5 filter paper (Fisher, Cat. No. 09-790-2e) to remove insoluble material. The filtered reaction buffer was stored at −80° C. until it was needed.
Growth Regimen: A single colony of the E. coli (i.e., a starter colony) was streaked onto an LB plate (with tetracycline) and incubated overnight at 37° C. Cells from the starter colony were then used to inoculate multiple colonies in LB (without tetracycline) to give a cell density no higher than 0.05 OD at 650 nm. The cells were grown at 37° C. under aerating conditions (i.e., shaken at 200 rpm in Erlenmeyer flasks having a volume of at least 10 times that of the culture.
Screening: When the cells had grown to a cell density of 0.25 to 0.8 OD at 650 nm, the culture was diluted to 0.25 OD. 80 μl of the diluted culture was added to each well of a microtiter plate containing 20 μl samples from a simulated natural product library, using an automated liquid dispensing robot from Titrtek (Huntsville, Ala.).
A positive control compound (25 μg/ml fosfomycin) was added to some of the wells and other wells were left untreated, as negative control samples. The samples were incubated on the plate for one hour at 37° C. without shaking.
Assay: 10 μl aliquots were transferred from each well to a second microtiter plate, using a Quadra 96 Model 320 robot (TomTec, Hamden, Conn.). 90 μl of the reaction buffer prepared above was added to each well using a automated liquiddispensing robot (Titrtek, Huntsville, Ala.). The OD of the samples was immediately read at […] in a plate reader (Biorad, Model 3550) to obtain zero point β-lactamase levels. The OD was measured again after incubating the plates at room temperature for 90 minutes (room temperature near 30° C.) or 120 minutes (room temperature below 30° C.).
Data Analysis: An induction value, I, was determined for each sample according to the following formula: I=(OD of sample—median OD)/(OD of induced cells—median OD); where the median OD was determined for each plate and the OD of induced cells was defined as the average of the readings from the control wells exposed to the 25 μg/ml fosfomycin. […] Any sample having I≧0.2 was considered to be positive. Since the assay is calorimetric, the zero-point levels were subtracted from the OD readings.
The same mixtures were also screened for increased β-lactamase using the new methods. The β-lactamase produced was plotted against the logarithm of ramoplanin concentration. FIGS. 3A and 3B show two examples of such. plots. As shown by the leftmost 6 and 7 solid black circles in FIGS. 3A and 3B, respectively, these plots show no effect of low concentrations of added ramoplanin on β-lactamase induction, up to a ramoplanin concentration of about 0.8 to 1.6 μg/ml. At this level, the β-lactamase induction level began to increase. […]

[2] = test system: envA-cells containing the pNU305 plasmid; experiment: microbe, parasite or virus in culture
Description: The optical density (OD) of each reaction mixture was measured at 655 nm. The lowest concentration of ramoplanin for which the OD reading was zero was taken to be the MIC.

[3] = lowest concentration with OD 655 nm of zero, 5×10^5 cells/ml, 18 hours, 37° C.

`CC(C)C[C@@H]1NC(=O)[C@@H](Cc2ccccc2)NC(=O)[C@H](CCN)NC(=O)[C@@H](NC(=O)[C@H](CCN)NC(=O)[C@@H](N)[C@@H](C)O)CCNC(=O)[C@H]([C@@H](C)O)NC(=O)[C@H](CCN)NC(=O)[C@H](CCN)NC1=O` [Polymyxin B nonapeptide] (H-T[Dab][Dab][Dab][dF]L[Dab][Dab]T; lactam 3-C; N-terminus assumed) was tested, and the “[Induction] (limit of detection of β-lactamase induction)” value [1] was 6.3 µg/mL and the MIC [2, 3] was >100 µg/mL.
Work on `CO[C@H]1/C=C/O[C@@]2(C)Oc3c(C)c(O)c4c(O)c(c(/C=N/N5CCN(C)CC5)c(O)c4c3C2=O)NC(=O)/C(C)=C\C=C\[C@H](C)[C@H](O)[C@@H](C)[C@@H](O)[C@@H](C)[C@H](OC(C)=O)[C@@H]1C` [Rifampicin] yielded an MIC ([2]; Escherichia coli, 18 h) of 0.06 µg/mL (≈ 0.0729 µM).
Ramoplanin was tested, and the “detection concentration times less than the minimum inhibitory concentration (MIC / limit of detection)” value ([1]; 20/1.8) was “about 11 times”, the “[Induction] (limit of detection of β-lactamase induction)” value [1] was 1.8 µg/mL and the “[Induction] (limit of detection of β-lactamase induction)” value ([1]; listed as ramoplanin) was “about 1.8 μg/ml”. The MIC [2, 3] was 20 µg/mL and the MIC ([2]; lowest concentration with OD 655 nm of zero, 5×10^5 cells/ml, 18 hours, 37° C., listed as ramoplanin) was “about 20 μg/ml”.
In the case of `CN[C@H](CC(C)C)C(=O)N[C@H]1C(=O)N[C@@H](CC(N)=O)C(=O)N[C@H]2C(=O)N[C@H]3C(=O)N[C@H](C(=O)N[C@H](C(=O)O)c4cc(O)cc(O)c4-c4cc3ccc4O)[C@H](O)c3ccc(c(Cl)c3)Oc3cc2cc(c3O[C@@H]2O[C@H](CO)[C@@H](O)[C@H](O)[C@H]2O[C@H]2C[C@](C)(N)[C@H](O)[C@H](C)O2)Oc2ccc(cc2Cl)[C@H]1O` [Vancomycin], the “[Induction] (limit of detection of β-lactamase induction)” value [1] is reported as 4 µg/mL and the MIC ([2]; Escherichia coli, 18 h) is reported as 10 µg/mL (≈ 6.9 µM).
For `CC[C@H]1OC(=O)[C@H](C)[C@@H](O[C@H]2C[C@@](C)(OC)[C@@H](O)[C@H](C)O2)[C@H](C)[C@@H](O[C@@H]2O[C@H](C)C[C@H](N(C)C)[C@H]2O)[C@](C)(O)C[C@@H](C)C(=O)[C@H](C)[C@@H](O)[C@]1(C)O` [Erythromycin], the “[Induction] (limit of detection of β-lactamase induction)” value [1] was “none” and the MIC ([2]; Escherichia coli, 18 h) was 0.8 µg/mL (≈ 1.09 µM).
In the case of `CO[C@@]1(NC(=O)Cc2cccs2)C(=O)N2C(C(=O)O)=C(COC(N)=O)CS[C@@H]21` [Cefoxitin], the “[Induction] (limit of detection of β-lactamase induction)” value [1] is reported as 2.5 µg/mL and the MIC ([2]; Escherichia coli, 18 h) is reported as 7 µg/mL (≈ 16.4 µM).
In the case of `O=C(O)c1cn(C2CC2)c2cc(N3CCNCC3)c(F)cc2c1=O` [Ciprofloxacin], the “[Induction] (limit of detection of β-lactamase induction)” value [1] is reported as “none” and the MIC ([2]; Escherichia coli, 18 h) is reported as 0.01 µg/mL (≈ 0.0302 µM).
In the case of `CC[C@H](C)[C@H](N)C1=N[C@H](C(=O)N[C@@H](CC(C)C)C(=O)N[C@H](CCC(=O)O)C(=O)N[C@H](C(=O)N[C@H]2CCCCNC(=O)[C@H](CC(N)=O)NC(=O)[C@@H](CC(=O)O)NC(=O)[C@H](Cc3cnc[nH]3)NC(=O)[C@@H](Cc3ccccc3)NC(=O)[C@H]([C@@H](C)CC)NC(=O)[C@@H](CCCN)NC2=O)[C@@H](C)CC)CS1` [Bacitracin] ({Ileψ(thiazoline)Cys}-L[dE]IK[dOrn]I[dF]H[dD]N; lactam 4-C), the “[Induction] (limit of detection of β-lactamase induction)” value [1] is reported as 1.6 µg/mL and the MIC [2, 3] is reported as 12.5 µg/mL (≈ 8.79 µM).
For `CCCCCCCCCCCCOS(=O)(=O)[O-].[Na+]` [Sodium dodecyl sulfate], the “[Induction] (limit of detection of β-lactamase induction)” value [1] was 4 µg/mL and the MIC ([2]; Escherichia coli, 18 h) was 2 µg/mL.
In the case of Polymyxin B sulfate, the “[Induction] (limit of detection of β-lactamase induction)” value [1] is reported as 0.2 µg/mL and the MIC [2, 3] is reported as 0.4 µg/mL.
For `N[C@@H]1CON=C1O` [Cycloserine], the “[Induction] (limit of detection of β-lactamase induction)” value [1] was 20 µg/mL and the MIC ([2]; Escherichia coli, 18 h) was 12.5 µg/mL (≈ 122 µM).
Triton X-100 was tested, and the “[Induction] (limit of detection of β-lactamase induction)” value [1] was 100 µg/mL and the MIC [2, 3] was 500 µg/mL.
`C[C@@H]1O[C@@H]1P(=O)(O)O` [Fosfomycin] was tested, and the “[Induction] (limit of detection of β-lactamase induction)” value [1] was 0.7 µg/mL and the MIC ([2]; Escherichia coli, 18 h) was 0.7 µg/mL (≈ 5.07 µM).
For Moenomycin, the “[Induction] (limit of detection of β-lactamase induction)” value [1] was 1 µg/mL and the MIC [2, 3] was 2 µg/mL.
With `CC[C@@]1([C@@H]2O[C@@H]([C@H]3O[C@@](O)(CO)[C@H](C)C[C@@H]3C)C[C@@H]2C)CC[C@H]([C@]2(C)CC[C@]3(C[C@H](O)[C@@H](C)[C@@H]([C@@H](C)[C@@H](OC)[C@H](C)C(=O)O)O3)O2)O1` [Monensin] the “[Induction] (limit of detection of β-lactamase induction)” value [1] was “none” and the MIC ([2]; Escherichia coli, 18 h) was > 100 µg/mL.
